In the NIST ThermoML archive (doi:10.1016/j.jct.2014.08.020):
± gives the expanded uncertainty stated by the source.

What was measured:
[1] = molar enthalpy of vaporization or sublimation; settings: 298.15 K; Liquid; Static calorimetry
[2] = molar heat capacity at constant pressure; settings: 300.6 K; 101.33 kPa; Liquid; Drop calorimetry

| molar enthalpy [1] | molar heat capacity at constant pressure [2] | SMILES |
| --- | --- | --- |
| 13.8 ± 0.237 kcal/mol |  | CCn1ccnc1 [1-ethyl-1H-imidazole] |
| 19.4 ± 0.335 kcal/mol | 382.21 ± 23 J/K/mol | CCCCCCCCn1ccnc1 [1-octylimidazole] |
| 15.3 ± 0.153 kcal/mol |  | CCCCn1ccnc1 [1-butylimidazole] |
